Test results: EPA's CvTdb concentration-time database
Each block holds one molecule with its values, some of them ahead of it.

Legend:
Rat [1] = experiment: concentration in plasma after dosing; settings: 6 h; dosed: 2-Hydroxy-4-methoxybenzophenone; 500 mg/kg; oral; Male; F344
Rat [2] = experiment: concentration in plasma after dosing; settings: 0.25 h; dosed: 2-Hydroxy-4-methoxybenzophenone; 500 mg/kg; oral; Female; F344
Rat [3] = experiment: concentration in kidney after dosing; settings: 528 h; dosed: Perfluorooctanoic acid; 12 mg/kg; oral; Male; Harlan Sprague Dawley
Rat [4] = experiment: concentration in plasma after dosing; settings: dosed: Potassium Perfluorobutane Sulfonate, 20 mg/kg, oral, Male, Harlan Sprague Dawley

- concentration in plasma (Rat [1]): 0.293 µg/mL
- concentration in plasma (Rat [2]): 0.619 µg/mL
Structure (SMILES): COc1ccc(C(=O)c2ccccc2)c(O)c1 [2-Hydroxy-4-methoxybenzophenone]

Structure (SMILES): O=C(O)C(F)(F)C(F)(F)C(F)(F)C(F)(F)C(F)(F)C(F)(F)C(F)(F)F [Perfluorooctanoic acid]
- concentration in kidney (Rat [3]): 6860 ng/g

Structure (SMILES): O=S(=O)([O-])C(F)(F)C(F)(F)C(F)(F)C(F)(F)F.[K+] [Potassium Perfluorobutane Sulfonate]
- concentration in plasma (Rat [4]; 5 min): 1.13 µg/mL
- concentration in plasma (Rat [4]; 9 h): 13.2 µg/mL
